Entries after “also recorded” stand apart in the source; their conditions may differ.
Columns and labels:
[1] = test system: T1, immunocaptured human heart PDH complex; assay: Immunocapture microplate PDH activity assay (NADH production) with known inhibitors and activators; assay type: biochemical; conditions: agent added to wells with already immunocaptured PDH; unmodified human heart PDH control = 100%
T1 construct: tissue Analytic Biological Services, Inc; host or cells: human heart mitochondria, lauryl maltoside solubilized, captured on anti-E2 mAb plates
Method: FIG. 3 is a graph summarizing the results of tests for specific inhibition and activation of immunocaptured PDH activity. Known inhibitors and activators as shown were added directly to wells of microtiter plates and incubated with already immunocaptured PDH. Activity of the complex was monitored by measuring production of NADH per min/mg mitochondrial protein. Unmodified activity of human heart PDH (control) was set to 100%.
96-well ELISA plates (Falcon Probind) were coated with Goat-anti-mouse IgG Fc specific antibody (0.5 μg/well) in PBS buffer overnight at 4° C. After 3 washings, wells were coated with monoclonal anti-PDH-E2 subunit at 0.5 μg/well and incubated for 1-2 hours at room temperature. The wells were washed 3-4 times and covered with a 0.5% bovine serum albumin solution for 1 hour to minimize non-specific protein binding to the wells. After blocking, wells were washed 5 times and 100 μl of solubilized mitochondria applied and incubated in the wells at room temperature for 1 hour. After incubation, the supernatant was collected and reapplied to a second antibody-covered plate to test for residual activity.
100 μl/well of the reaction mixture (50 mM Tris, pH 7.5; 2 mM β-NAD+, 225 μM TPP, 2 mM pyruvate, 150 μM Coenzyme A, 2.6 mM cysteine, 1 mM MgCl2) was applied and NADH production was monitored either spectrophotometrically at […] or by measuring fluorescence in the presence of 15 μM resazurin and 0.5 U/ml diaphorase using an excitation wavelength of 530 nm and an emission wavelength of 590 nm for up to […]. […] Activity was calculated as nMol NADH/min/mg of mitochondrial protein.
Monoclonal anti-E2 antibodies were attached to 96-well microplates to which had been prebound goat anti-mouse IgG Fc mAbs, as described in Materials and Methods. […] Unbound protein was removed by extensive washings and NADH production then measured by the increase of absorbance at 340 nm or by coupled fluorescence assay, in the presence of NAD+, pyruvate, CoA, TPP, MgCl2, and cysteine as a reducing agent in 50 mM Tris-HCl buffer pH 7.8. […]

[2] = test system: E1α subunit of immunoprecipitated PDH complex; assay: 2D-gel isoelectric focusing and Western blot with E1α-specific mAb to follow phosphorylation of immunoprecipitated PDH; conditions: pH gradient 10 to 3; compared with untreated enzyme

| SMILES | Increase of PDH activity [1] [%] | Inhibition of immunocaptured PDH activity [1] | Level of phosphorylation of E1α (isoelectric point shift) [2] |
| --- | --- | --- | --- |
| O=C(O)C(Cl)Cl [Dichloroacetate] | 34 | – | – |
| Nc1ncnc2c1ncn2[C@@H]1O[C@H](COP(=O)(O)OP(=O)(O)OP(=O)(O)O)[C@@H](O)[C@H]1O [ATP] | – | about 70% | greatly increased the level of phosphorylation; also recorded: increases the phosphorylation patterns of E1α |
| O=[As]O [sodium arsenite] | – | > 98% | – |

— patent US20050239143A1, “Immunocapture-based measurements of mammalian pyruvate dehydrogenase complex” (priority 2002, published 2005)
